Source: PubChem BioAssay (NCI)
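48-hour exposure; five concentrations; linearly interpolated endpoints. The concentration for full growth arrest is given as TGI.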

How the values were obtained:
Test in all cases: growth of human tumour cells (NCI), 48 h
SF-268 CNS = tested on: SF-268 CNS
BT-549 breast = tested on: BT-549 breast
MDA-N = tested on: MDA-N
TK-10 renal = tested on: TK-10 renal
NCI-H226 lung = tested on: NCI-H226 lung
CCRF-CEM leukemia = tested on: CCRF-CEM leukemia
HT29 colon = tested on: HT29 colon
HL-60(TB) leukemia = tested on: HL-60(TB) leukemia
786-0 renal = tested on: 786-0 renal
SW-620 colon = tested on: SW-620 colon
MCF7 breast = tested on: MCF7 breast
SK-MEL-28 melanoma = tested on: SK-MEL-28 melanoma
HOP-62 NSCLC = tested on: HOP-62 NSCLC
M14 melanoma = tested on: M14 melanoma
PC-3 prostate = tested on: PC-3 prostate
T-47D breast = tested on: T-47D breast
HCT-15 colon = tested on: HCT-15 colon
U251 CNS = tested on: U251 CNS
HS 578T breast = tested on: HS 578T breast
UO-31 renal = tested on: UO-31 renal
IGROV1 ovarian = tested on: IGROV1 ovarian
ACHN renal = tested on: ACHN renal
SK-OV-3 ovarian = tested on: SK-OV-3 ovarian
NCI/ADR-RES ovarian = tested on: NCI/ADR-RES ovarian
MDA-MB-435 = tested on: MDA-MB-435
SK-MEL-2 melanoma = tested on: SK-MEL-2 melanoma
MDA-MB-231 breast = tested on: MDA-MB-231 breast
NCI-H460 lung = tested on: NCI-H460 lung
HCT-116 colon = tested on: HCT-116 colon
NCI-H23 lung = tested on: NCI-H23 lung
DU-145 prostate = tested on: DU-145 prostate
OVCAR-5 ovarian = tested on: OVCAR-5 ovarian
OVCAR-3 ovarian = tested on: OVCAR-3 ovarian
SN12C renal = tested on: SN12C renal
SF-539 CNS = tested on: SF-539 CNS
KM12 colon = tested on: KM12 colon
A498 renal = tested on: A498 renal
RXF 393 renal = tested on: RXF 393 renal
K-562 leukemia = tested on: K-562 leukemia
OVCAR-8 ovarian = tested on: OVCAR-8 ovarian
SR leukemia = tested on: SR leukemia
MALME-3M melanoma = tested on: MALME-3M melanoma
MOLT-4 leukemia = tested on: MOLT-4 leukemia
SF-295 CNS = tested on: SF-295 CNS
SNB-19 CNS = tested on: SNB-19 CNS
UACC-62 melanoma = tested on: UACC-62 melanoma
A549 NSCLC = tested on: A549 NSCLC
HCC-2998 colon = tested on: HCC-2998 colon
EKVX NSCLC = tested on: EKVX NSCLC
SK-MEL-5 melanoma = tested on: SK-MEL-5 melanoma
HOP-92 NSCLC = tested on: HOP-92 NSCLC
COLO 205 colon = tested on: COLO 205 colon
UACC-257 melanoma = tested on: UACC-257 melanoma
RPMI-8226 leukemia = tested on: RPMI-8226 leukemia
NCI-H522 lung = tested on: NCI-H522 lung
OVCAR-4 ovarian = tested on: OVCAR-4 ovarian
LOX IMVI melanoma = tested on: LOX IMVI melanoma
SNB-75 CNS = tested on: SNB-75 CNS
CAKI-1 renal = tested on: CAKI-1 renal

Structure (SMILES): CCCC(=O)N/S(=N/S(=O)(=O)c1ccc(Cl)cc1)C(Cl)(Cl)Cl (centres undefined)
- TGI (SF-268 CNS): > 100 µM
- TGI (BT-549 breast): > 100 µM
- TGI (MDA-N): > 100 µM
- TGI (TK-10 renal): > 100 µM
- TGI (NCI-H226 lung): > 100 µM
- TGI (CCRF-CEM leukemia): > 100 µM
- TGI (HT29 colon): > 100 µM
- TGI (HL-60(TB) leukemia): > 100 µM
- TGI (786-0 renal): > 100 µM
- TGI (SW-620 colon): > 100 µM
- TGI (MCF7 breast): > 100 µM
- TGI (SK-MEL-28 melanoma): > 100 µM
- TGI (HOP-62 NSCLC): > 100 µM
- TGI (M14 melanoma): > 100 µM
- TGI (PC-3 prostate): > 100 µM
- TGI (T-47D breast): > 100 µM
- TGI (HCT-15 colon): > 100 µM
- TGI (U251 CNS): > 100 µM
- TGI (HS 578T breast): > 100 µM
- TGI (UO-31 renal): > 100 µM
- TGI (IGROV1 ovarian): > 100 µM
- TGI (ACHN renal): > 100 µM
- TGI (SK-OV-3 ovarian): > 100 µM
- TGI (NCI/ADR-RES ovarian): > 100 µM
- TGI (MDA-MB-435): > 100 µM
- TGI (SK-MEL-2 melanoma): > 100 µM
- TGI (MDA-MB-231 breast): > 100 µM
- TGI (NCI-H460 lung): > 100 µM
- TGI (HCT-116 colon): > 100 µM
- TGI (NCI-H23 lung): > 100 µM
- TGI (DU-145 prostate): > 100 µM
- TGI (OVCAR-5 ovarian): > 100 µM
- TGI (OVCAR-3 ovarian): > 100 µM
- TGI (SN12C renal): > 100 µM
- TGI (SF-539 CNS): > 100 µM
- TGI (KM12 colon): > 100 µM
- TGI (A498 renal): > 100 µM
- TGI (RXF 393 renal): > 100 µM
- TGI (K-562 leukemia): > 100 µM
- TGI (OVCAR-8 ovarian): > 100 µM
- TGI (SR leukemia): > 100 µM
- TGI (MALME-3M melanoma): > 100 µM
- TGI (MOLT-4 leukemia): > 100 µM
- TGI (SF-295 CNS): > 100 µM
- TGI (SNB-19 CNS): > 100 µM
- TGI (UACC-62 melanoma): > 100 µM
- TGI (A549 NSCLC): > 100 µM
- TGI (HCC-2998 colon): > 100 µM
- TGI (EKVX NSCLC): > 100 µM
- TGI (SK-MEL-5 melanoma): > 100 µM

Structure (SMILES): C=C1C(=O)O[C@H]2[C@H]1[C@H](OC(=O)/C(C)=C\C)C[C@]1(CO1)[C@@H]1[C@H](OC(C)=O)C=C(C)[C@]21O
- TGI (SF-268 CNS): 45.5 µM
- TGI (BT-549 breast): 24.4 µM
- TGI (MDA-N): 34.8 µM
- TGI (TK-10 renal): 23.1 µM
- TGI (NCI-H226 lung): > 61.2 µM
- TGI (CCRF-CEM leukemia): 15.6 µM
- TGI (HOP-92 NSCLC): 30.3 µM
- TGI (COLO 205 colon): 19.4 µM
- TGI (HT29 colon): 30.4 µM
- TGI (HL-60(TB) leukemia): 12.9 µM
- TGI (786-0 renal): 23.5 µM
- TGI (SW-620 colon): 27.9 µM
- TGI (MCF7 breast): 29.1 µM
- TGI (SK-MEL-28 melanoma): 30.6 µM
- TGI (HOP-62 NSCLC): > 100 µM
- TGI (M14 melanoma): 54.9 µM
- TGI (PC-3 prostate): > 58.8 µM
- TGI (T-47D breast): 36.5 µM
- TGI (HCT-15 colon): 33.5 µM
- TGI (U251 CNS): 52 µM
- TGI (HS 578T breast): > 100 µM
- TGI (UO-31 renal): 29.4 µM
- TGI (IGROV1 ovarian): 38.8 µM
- TGI (UACC-257 melanoma): 39.2 µM
- TGI (ACHN renal): 24.5 µM
- TGI (SK-OV-3 ovarian): > 100 µM
- TGI (RPMI-8226 leukemia): 15.2 µM
- TGI (NCI/ADR-RES ovarian): 57.4 µM
- TGI (MDA-MB-435): 42.4 µM
- TGI (NCI-H522 lung): 16.8 µM
- TGI (SK-MEL-2 melanoma): > 58.3 µM
- TGI (MDA-MB-231 breast): 39.5 µM
- TGI (NCI-H460 lung): > 89.8 µM
- TGI (OVCAR-4 ovarian): > 100 µM
- TGI (HCT-116 colon): 20.3 µM
- TGI (NCI-H23 lung): 53.2 µM
- TGI (DU-145 prostate): 29 µM
- TGI (OVCAR-5 ovarian): > 59.1 µM
- TGI (OVCAR-3 ovarian): 32.1 µM
- TGI (SN12C renal): 30.2 µM
- TGI (SF-539 CNS): > 93.9 µM
- TGI (KM12 colon): 41.4 µM
- TGI (A498 renal): > 100 µM
- TGI (LOX IMVI melanoma): 29 µM
- TGI (SNB-75 CNS): > 100 µM
- TGI (RXF 393 renal): 25.6 µM
- TGI (K-562 leukemia): 11.8 µM
- TGI (OVCAR-8 ovarian): > 100 µM
- TGI (SR leukemia): 28.5 µM
- TGI (MALME-3M melanoma): 35.3 µM
- TGI (MOLT-4 leukemia): 25.6 µM
- TGI (SF-295 CNS): > 100 µM
- TGI (SNB-19 CNS): > 100 µM
- TGI (CAKI-1 renal): 36.8 µM
- TGI (UACC-62 melanoma): 32.2 µM
- TGI (A549 NSCLC): > 100 µM
- TGI (HCC-2998 colon): 35.5 µM
- TGI (EKVX NSCLC): 33.8 µM
- TGI (SK-MEL-5 melanoma): 37.2 µM
